Measurements: patent publication US20150087677A1, “METHODS FOR TREATING VESTIBULOTOXICTY” (priority 2012, published 2015)

Experiments:
vestibular hair cells = assay type: cell-based, rat; conditions: co-treatment with cimetidine (1000 μM) and cisplatin for 48 hrs, FIG. 3
Method: Vestibular end organs were aseptically removed from animals. Explants composed of sensory and nonsensory epithelia were placed on 5 μl of growth factor-reduced Matrigel on laminin (10 μg/ml)-coated glass coverslips. These preparations were incubated for 30 min at 37° C. in a 95%/5% O2/CO2 atmosphere at saturating moisture. Explants were then cultured in DMEM and F12 (50%/50% v/v) media supplemented with N2 mixture (2%). The medium was renewed every 4 d. […] Treated cultures were then fixed with PAF 4% for 1 hr. Labeling of hair bundles was processed using Alex488-conjugated phalloidin (1:700) overnight. After rinsing with PBS, cultures were mounted in Moviol (Calbiochem). Labelling was observed and image digitalized using an apotome microscope (Zeiss). Hair bundles per utricle were quantified using ImageJ software. Statistical analysis was processed with SigmaPlot software (Systat Software). Final image processing was performed with Adobe Photoshop software.

[1] = test system: cisplatin induced vestibulotoxicity; experiment: Induced deficits of vestibular behavior after transtympanic cisplatin (vestibular deficit score); assay type: in vivo, rat; conditions: for time after the lesion at which protective effects are first observed: effects persist over the following days
Method: Vestibular deficit associated behaviors were scored on a scale from 0 to 4, respectively ranging from normal behavior (rating 0) to maximal identified vestibular impairment (rating 4). […] Rats were scored for vestibular deficits after transtympanic injection of cisplatin (50 μl, 2 mg/ml) and, evaluated from 4 to 336 hrs after the injection (FIG. 4). Scores were expressed as mean (±sem). For preventive treatment, injection of cimetidine (i.p., 12 mg/kg) was injected 4 hours before the transtympanic injection of cisplatin. Sham animals received saline (i.p) 4 hours before the lesion. To focus on the preventive action of transtympanic injection of the compounds of the invention in the first 72 hours, ototoxicity is induced by a transtympanic injection (50 μl) of cisplatin (2 mg/ml in saline; 6.7 mM) and a determined ratio of corresponding molar dose of compounds are premixed and injected transtympanically with cisplatin. For example, for the dose ratio 1/2 of compound/cisplatin, a solution of 3.5 mM of compound of interest in addition to the 6.7 mM of cisplatin in saline is prepared and, 50 μl of this mixed saline solution is injected transtympanically at TO. Different control animals are run in parallel: saline only, cisplatin (6.7 mM) only to control the initial lesion, and the compounds of interest alone at different doses in saline to control potential ototoxicity of the compound independently of cisplatin, are with cisplatin. […] For transtympanic experiments, rats were scored for vestibular deficits just before the transtympanic injection, TO and, evaluated at 24, 48 & 72 hours after the injection (FIGS. 5 to 11). Scores were expressed as mean (±sem).

[2] = transtympanic injection premixed with cisplatin, rats, FIGS. 5 to 11
[3] = transtympanic injection, FIGS. 5 to 11

SMILES | effect on cisplatin-induced vestibular hair cell loss in vitro (vestibular hair cells) | effect on vestibular toxicity and behavioral deficits induced by cisplatin ([1]; adult rats, systemic (i.p., 12 mg/kg) pretreatment 4 hrs before transtympanic cisplatin, FIG. 4) | time after the lesion at which protective effects are first observed ([1]; systemic (i.p.) pretreatment t-4 hrs, FIG. 4) [h] | effect on vestibular toxicity and behavioral deficits induced by cisplatin [1, 2] | time after the lesion at which protective effects are first observed [1, 3] [h]
CN/C(=N/CCSCc1nc[nH]c1C)NC#N [cimetidine] | reduces vestibular hair cell loss | reduces the vestibular toxicity and behavioral deficits | 48 | reduces the vestibular toxicity and behavioral deficits | 24
COc1ccc2[nH]c([S+]([O-])Cc3ncc(C)c(OC)c3C)nc2c1 (stereo not shown) [omeprazole] | – | – | – | – | 24
CNC(=C[N+](=O)[O-])NCCSCc1ccc(CN(C)C)o1 [ranitidine] | – | – | – | – | 24
COc1ccnc(C[S+]([O-])c2nc3ccc(OC(F)F)cc3[nH]2)c1OC (stereo not shown) [pantoprazole] | – | – | – | – | 24
COCCCOc1ccnc(C[S+]([O-])c2nc3ccccc3[nH]2)c1C (stereo not shown) [rabeprazole] | – | – | – | – | 24
Cc1c(OCC(F)(F)F)ccnc1C[S+]([O-])c1nc2ccccc2[nH]1 (stereo not shown) [lansoprazole] | – | – | – | reduces the vestibular toxicity and behavioral deficits | 24
CNC(=C[N+](=O)[O-])NCCSCc1csc(CN(C)C)n1 [nizatidine] | – | – | – | reduces the vestibular toxicity and behavioral deficits | 24
